Earlier results as cited in patent US20110159092A1 (MICRO LABS LIMITED, priority 2009, published 2011).

How the values were obtained:
streptococci = conditions: majority of strains
bacteria = conditions: background statement
enterococci = conditions: against enterococci
staphylococci = conditions: against staphylococci

In the case of `CC(=O)NC[C@H]1CN(c2ccc(N3CCOCC3)c(F)c2)C(=O)O1` [Linezolid, (S)-N-({3-[3-fluoro-4-(morpholin-4-yl)phenyl]-2-oxo-1,3-oxazolidin-5-yl}methyl)acetamide], the time-kill result (streptococci) is given as “bactericidal”, the MIC (bacteria) is given as 1 to 4 µg/mL and the time-kill result (enterococci) is given as “bacteriostatic”. For the same molecule, the time-kill result (staphylococci) was “bacteriostatic”.
